{
  "source": "paper PMC5531494",
  "about": "“Target specificity, in vivo pharmacokinetics, and efficacy of the putative STAT3 inhibitor LY5 in osteosarcoma, Ewing's sarcoma, and rhabdomyosarcoma” (PLoS ONE, 2017)",
  "key": {"[1]": {"system": "OS-1", "assay": "Subcutaneous xenograft study", "assay_type": "in vivo, mice", "settings": "OS-1, 40 mg/kg twice per day for five days for four consecutive weeks", "protocol": "C.B-17SC scid^-/- female mice (Taconic Farms, Germantown NY), were used to propagate subcutaneously implanted tumors. All mice were maintained under barrier conditions and experiments were conducted using protocols and conditions approved by the institutional animal care and use committee at University of Texas Health Science Center at San Antonio. Ten mice were used in each control or treatment group. Tumor volumes (cm^3) were determined and responses were determined using three activity measures as previously described.\nThe data were analyzed by using GraphPad Prism software (GraphPad Software, Inc., San Diego, CA). Data are presented as mean ± standard deviation. Data were analyzed by one-way analysis of variance (ANOVA), and Tukey’s post-test was used to assess differences between groups. Differences were considered statistically significant at p < 0.05. For in vivo xenograft models, an event was defined as four times the tumor volume at baseline similar to the PPTP criteria. […] The anti-tumor efficacy of LY5 was analyzed by using the statistical pipeline developed in PPTP [27].\nFig 6 Effects of LY5 are not mediated via STAT3 inhibition. […] After 72 hours of transfection, cells were harvested and analyzed for total (T) STAT3 and GAPDH protein expression by immunoblotting. […] Cell viability was then determined using Alamar Blue staining. […]"}, "[2]": {"system": "MG63.3 cells", "assay": "Sulforhodamine B cytotoxicity / cell viability assay", "assay_type": "cell-based", "settings": "Homo sapiens, MG-63.3", "protocol": "Murine K7M2 and human MG63.3 OS cells were treated with increasing concentrations of LY5 for 2 hrs or 7 hrs. Western blotting was performed for pSTAT3 and STAT3 as indicated above to confirm inhibition of STAT3 phosphorylation in the cell lines prior to initiation of the PuMA assay. In addition, a sulforhodamine B colorimetric assay was performed to assess the cytotoxicity of LY5 in K7M2 and MG63.3 cells as previously described.\nMG63.3 and K7M2 cell lines were exposed to increasing concentrations of LY5 to determine the IC50 (A). Western blot analysis was performed to determine the dose and duration of LY5 exposure required to inhibit STAT3 phosphorylation (B-C). Serial imaging of fluorescently labeled MG63.3 and K7M2 cells was performed in ex vivo LY5 treated lung sections (D). Metastatic burden was quantified by evaluation of the percent tumor burden (mean normalized fluorescent area). Data are reported as the mean ± standard deviation. In MG 63.3 experiment, p < 0.0001 Kruskal-Wallis test, p < 0.05 10 μM vs control at days 7, 14, and 21, 10 μM vs 1 μM at days 7, 14, and 21, 50 μM vs control at days 7, 14, and 21, and 50 μM vs 10 μM at days 7, 14, and 21 post-test Dunn. In K7M2 experiment, p < 0.0001 Kruskal-Wallis test, p < 0.05 10 μM vs control at days 14 and 21, 10 μM vs 0.1 μM at days 14 and 21, and 10 μM vs 1 μM at days 14 and 21, post-test Dunn."}, "[3]": {"assay": "PK in normal beagle dogs, oral capsules of LY5 powder", "assay_type": "in vivo", "settings": "plasma, fasted; for AUC(0-inf): read-out: AUC inf-obs", "protocol": "LY5 was evaluated in two normal purpose-bred beagle dogs (female 8.8 kg; male 11.2 kg) receiving a single dose of 1mg/kg LY5 IV then orally by gavage 7 days later to establish the PK profile and assess the spectrum of clinical toxicities associated with LY5 administration. The oral dosing was repeated in the fed and fasted state. The starting dose was determined based on allometric scaling from the maximal tolerated dose studies performed in mice. Dogs were washed out for 30 days, and then given a dose of 25 mg in a capsule orally, followed by a 50 mg capsule dose 14 days later. Full PK sampling was performed over 24 hours following each dose of LY5. The dogs received LY5 and were used for the PK analysis but were not euthanized upon conclusion of the study.\nThe liquid chromatography-mass spectrometry system utilized for these analyses consisted of a Dionex Ultimate 3000 RSLCnano High Performance Liquid Chromatography system and a Thermo Finnigan Quantum Ultras EMR mass spectrometer with an electrospray ionization source. Positive ionization mode was used for both LY5 and the internal standard, hesperetin. Plasma samples were collected and analyzed by the OSU James Comprehensive Cancer Center Pharmacoanalytical Shared Resource. Pharsight Phoenix WinNonlin software using non-compartmental analysis was used to generate PK parameters including maximum plasma concentration (Cmax), amount of time that drug is present at Cmax (Tmax), and total area under the curve (AUC). AUC all and AUC last were calculated by linear trapezoidal method of concentration-time curve up to the last measured point. AUC inf-obs was calculated by log-linear extrapolation of the terminal phase beyond the last collection time. Bioavailability (F) was calculated for IP and PO administration routes. Plasma stability and liver microsomal stability of LY5 were also assessed through this shared resource."}, "[4]": {"settings": "female, Dog #2, 25 mg oral capsule"}, "[5]": {"settings": "female, Dog #2, 50mg oral capsule"}, "[6]": {"settings": "male, Dog #1, 25 mg oral capsule"}, "[7]": {"settings": "male, Dog #1, 50mg oral capsule"}},
  "note": "pIC50: −log10 of the molar value. Where two headings read alike, the source gives them in different places. Marks after values point to notes of the source that are not given here.",
  "data": [
    {"smiles": "NS(=O)(=O)c1cccc2c1C(=O)C=C(Nc1cccnc1)C2=O", "note": "[LY5, 5,8-dioxo-6-(pyridin-3-ylamino)-5,8-dihydronaphthalene-1-sulfonamide]", "values": [
      {"measurement": "Group Response", "setting": "[1]", "value": "PD2^f (Progressive disease 2, >50% TGI, >25% tumor progression)"},
      {"measurement": "Survival (%)", "setting": "[1]", "value": 90, "unit": "%"},
      {"measurement": "pIC50", "setting": "[2]", "value": 5.52},
      {"measurement": "AUC(0-t)", "setting": "[3]; [4]", "value": 2.51, "unit": "µM·h"},
      {"measurement": "Tmax", "setting": "[3]; [4]", "value": 2, "unit": "h"},
      {"measurement": "AUC(0-inf)", "setting": "[3]; [4]", "value": 2.53, "unit": "µM·h"},
      {"measurement": "AUC(0-t)", "setting": "[3]; [5]", "value": 5.93, "unit": "µM·h"},
      {"measurement": "Tmax", "setting": "[3]; [5]", "value": 4, "unit": "h"},
      {"measurement": "AUC(0-inf)", "setting": "[3]; [5]", "value": 5.96, "unit": "µM·h"},
      {"measurement": "AUC(0-t)", "setting": "[3]; [6]", "value": 2.62, "unit": "µM·h"},
      {"measurement": "Cmax", "setting": "[3]; [6]", "value": 230, "unit": "nM"},
      {"measurement": "Tmax", "setting": "[3]; [6]", "value": 2, "unit": "h"},
      {"measurement": "AUC(0-inf)", "setting": "[3]; [6]", "value": 2.69, "unit": "µM·h"},
      {"measurement": "AUC(0-t)", "setting": "[3]; [7]", "value": 2.92, "unit": "µM·h"},
      {"measurement": "Cmax", "setting": "[3]; [7]", "value": 840, "unit": "nM"},
      {"measurement": "Tmax", "setting": "[3]; [7]", "value": 3, "unit": "h"},
      {"measurement": "AUC(0-inf)", "setting": "[3]; [7]", "value": 2.97, "unit": "µM·h"},
      {"measurement": "Cmax", "setting": "[3]; Dog #2, 25 mg oral capsule", "value": 516, "unit": "nM"},
      {"measurement": "Cmax", "setting": "[3]; Dog #2, 50mg oral capsule", "value": 909, "unit": "nM"}
    ]}
  ]
}
